In patent US20140120087A1, “TRIAZOLOPYRIDINES” (BAYER INTELLECTUAL PROPERTY GMBH, priority 2011, published 2014):

Experiments:
Mps-1 kinase [1] = target: T1, Mps-1 kinase (Homo sapiens, UniProt P33981); test: Mps-1 kinase assay with 2 mM ATP (TR-FRET)
T1 sequence (P33981 1-857): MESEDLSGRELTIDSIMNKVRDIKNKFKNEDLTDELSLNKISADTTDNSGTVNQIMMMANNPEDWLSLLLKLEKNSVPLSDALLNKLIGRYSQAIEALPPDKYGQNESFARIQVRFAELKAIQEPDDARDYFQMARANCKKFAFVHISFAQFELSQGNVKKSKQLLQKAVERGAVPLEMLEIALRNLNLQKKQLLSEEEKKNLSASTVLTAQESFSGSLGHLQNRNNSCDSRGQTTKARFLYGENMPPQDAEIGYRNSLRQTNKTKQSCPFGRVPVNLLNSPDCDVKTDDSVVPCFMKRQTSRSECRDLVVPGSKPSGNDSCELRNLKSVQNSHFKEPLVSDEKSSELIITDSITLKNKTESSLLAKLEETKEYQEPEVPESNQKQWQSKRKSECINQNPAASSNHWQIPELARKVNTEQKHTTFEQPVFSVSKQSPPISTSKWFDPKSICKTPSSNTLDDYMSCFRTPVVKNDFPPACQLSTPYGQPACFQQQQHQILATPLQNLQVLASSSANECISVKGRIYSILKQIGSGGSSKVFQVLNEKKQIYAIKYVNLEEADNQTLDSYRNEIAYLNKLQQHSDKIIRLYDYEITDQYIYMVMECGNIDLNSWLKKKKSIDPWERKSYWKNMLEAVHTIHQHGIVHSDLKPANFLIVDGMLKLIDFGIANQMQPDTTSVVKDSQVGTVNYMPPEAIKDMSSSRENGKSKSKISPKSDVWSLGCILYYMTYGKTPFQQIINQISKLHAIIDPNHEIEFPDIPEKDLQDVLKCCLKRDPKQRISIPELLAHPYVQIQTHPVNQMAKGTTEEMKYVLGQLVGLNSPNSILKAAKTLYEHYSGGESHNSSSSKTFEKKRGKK

Mps-1 kinase [2] = target: T1, Mps-1 kinase; test: Mps-1 kinase assay with 10 μM ATP (TR-FRET)

SMILES	IC50 (Mps-1 kinase [1])	IC50 (Mps-1 kinase [2])
NC(=O)c1ccc(Nc2nc3ccc(-c4ccc(NC(=O)Cc5ccc(F)cc5)cc4)cn3n2)c(OC(F)(F)F)c1 [Example 12.25, 4-{[6-(4-{[(4-fluorophenyl)-acetyl]amino}phenyl)[1,2,4]triazolo[1,5-a]pyridin-2-yl]amino}-3-(trifluoro-methoxy)benzamide]	2.7 nM	≤ 1 nM
Cc1cc(C(=O)N(C)C)ccc1Nc1nc2ccc(-c3ccc(NC(=O)Cc4ccc(F)cc4)cc3)cn2n1 [Example 12.31, 4-{[6-(4-{[(4-fluorophenyl)-acetyl]amino}phenyl)[1,2,4]triazolo[1,5-a]pyridin-2-yl]amino}-N,N,3-trimethyl-benzamide]	3.8 nM	≤ 1 nM
COc1cc(S(C)(=O)=O)ccc1Nc1nc2ccc(-c3ccc(NC(=O)Cc4ccc(Cl)cc4)cc3)cn2n1 [Example 12.41, 2-(4-chlorophenyl)-N-[4-(2-{[2-methoxy-4-(methyl-sulfonyl)phenyl]amino}-[1,2,4]triazolo[1,5-a]pyridin-6-yl)phenyl]acetamide]	7.2 nM	≤ 1 nM
Cc1cc(-c2ccc3nc(Nc4ccc(S(C)(=O)=O)cc4OCC(F)(F)F)nn3c2)ccc1C(=O)NCc1ccc(F)cc1 [Example 04.2, N-(4-fluorobenzyl)-2-methyl-4-(2-{[4-(methylsulfonyl)-2-(2,2,2-trifluoro-ethoxy)phenyl]amino}[1,2,4]triazolo[, 5-α]pyridin-6-yl)benzamide]	15 nM	≤ 1 nM
Cc1cc(S(C)(=O)=O)ccc1Nc1nc2ccc(-c3ccc(C(=O)NCc4ccc(Cl)cc4)cc3)cn2n1 [Example 12.74, N-(4-chlorobenzyl)-4-(2-{[2-methyl-4-(methylsulfonyl)-phenyl]amino}[1,2,4]triazolo [1,5-a]pyridin-6-yl)-benzamide]	16 nM	≤ 1 nM
CCOc1cc(S(C)(=O)=O)ccc1Nc1nc2ccc(-c3ccc(C(=O)NCc4ccc(F)cc4)cc3)cn2n1 [Example 02.25, 4-(2-{[2-ethoxy-4-(methylsulfonyl)phenyl]amino}[1,2,4]triazolo[1,5-α]-pyridin-6-yl)-N-(4-fluorobenzyl)benzamide]	3.3 nM	≤ 1 nM
COc1cc(C(=O)NCCF)ccc1Nc1nc2ccc(-c3ccc(C(=O)NCc4ccc(F)cc4)cc3)cn2n1 [Example 12.45, 4-[(6-{4-[(4-fluorobenzyl)-carbamoyl]phenyl}[1,2,4]triazolo [1,5-a]pyridin-2-yl)-amino]-N-(2-fluoroethyl)-3-methoxybenzamide]	1.4 nM	≤ 1 nM
COc1cc(C(=O)N(C)CC(F)(F)F)ccc1Nc1nc2ccc(-c3ccc(NC(=O)Cc4ccc(F)cc4)cc3)cn2n1 [Example 12.09, 4-{[6-(4-{[(4-fluorophenyl)-acetyl]amino}phenyl)[1,2,4]triazolo[1,5-a]pyridin-2-yl]amino}-3-methoxy-N-methyl-N-(2,2,2-trifluoro-ethyl)benzamide]	2.5 nM	≤ 1 nM
CS(=O)(=O)c1ccc(Nc2nc3ccc(-c4ccc(C(=O)NCc5ccc(F)cc5)cc4)cn3n2)c(OC2CC2)c1 [Example 02.29, 4-(2-{[2-(cyclopropyloxy)-4-(methylsulfonyl)phenyl]amino}[1,2,4]triazolo-[1,5-α]pyridin-6-yl)-N-(4-fluorobenzyl)benzamide]	7.5 nM	≤ 1 nM
COc1cc(C(=O)NCC(F)(F)F)ccc1Nc1nc2ccc(-c3ccc(NC(=O)Cc4ccc(F)cc4)cc3)cn2n1 [Example 01.31, 4-{[6-(4-{[(4-fluorophenyl)acetyl]amino}phenyl)[1,2,4]triazolo[1,5-α]-pyridin-2-yl]amino}-3-methoxy-N-(2,2,2-trifluoroethyl)benzamide]	5 nM	≤ 1 nM
COc1cc(S(C)(=O)=O)ccc1Nc1nc2ccc(-c3ccc(C(=O)NCc4ccc(F)cc4)c(OC)c3)cn2n1 [Example 09.1, N-(4-fluorobenzyl)-2-methoxy-4-(2-{[2-methoxy-4-(methylsulfonyl)phenyl]-amino}[1,2,4]triazolo[1,5-α]pyridin-6-yl)benzamide]	19 nM	≤ 1 nM
Cc1cc(-c2ccc3nc(Nc4ccc(S(C)(=O)=O)cc4OCC(F)(F)F)nn3c2)ccc1C(=O)NCc1ccc(F)cc1F [Example 12.80, N-(2,4-difluorobenzyl)-2-methyl-4-(2-{[4-(methyl-sulfonyl)-2-(2,2,2-trifluoro-ethoxy)phenyl]amino}[1,2,4]triazolo[1,5-a]pyridin-6-yl)-benzamide]	18 nM	≤ 1 nM
COc1cc(S(=O)(=O)NC(C)(C)C)ccc1Nc1nc2ccc(-c3ccc(NC(=O)Cc4ccc(F)cc4)cc3)cn2n1 [Example 12.15, N-[4-(2-{[4-(tert-butyl-sulfamoyl)-2-methoxy-phenyl]amino}[1,2,4]-triazolo[1,5-a]pyridin-6-yl)phenyl]-2-(4-fluoro-phenyl)acetamide]	1.6 nM	≤ 1 nM
CCNC(=O)c1cc(C)c(Nc2nc3ccc(-c4ccc(NC(=O)Cc5ccc(F)cc5)cc4)cn3n2)cn1 [Example 12.37, N-ethyl-5-{[6-(4-{[(4-fluoro-phenyl)acetyl]amino}-phenyl)[1,2,4]triazolo[1,5-a]pyridin-2-yl]amino}-4-methylpyridine-2-carboxamide]	13 nM	≤ 1 nM

These reach a lower IC50 (Mps-1 kinase [1]). Values come first.

IC50 (Mps-1 kinase [1])	IC50 (Mps-1 kinase [2])	SMILES
≤ 1 nM	≤ 1 nM	CNC(=O)c1ccc(Nc2nc3ccc(-c4ccc(NC(=O)Cc5ccc(F)cc5)cc4)cn3n2)c(OC)c1 [Example 01.30, 4-{[6-(4-{[(4-fluorophenyl)acetyl]amino}phenyl)[1,2,4]triazolo[1,5-α]-pyridin-2-yl]amino}-3-methoxy-N-methylbenzamide]
1.2 nM	≤ 1 nM	CS(=O)(=O)c1ccc(Nc2nc3ccc(-c4ccc(NC(=O)Cc5ccc(F)cc5)cc4)cn3n2)c(OC(F)F)c1 [Example 01.35, N-[4-(2-{[2-(difluoromethoxy)-4-(methylsulfonyl)phenyl]amino}[1,2,4]-triazolo[1,5-α]pyridin-6-yl)phenyl]-2-(4-fluorophenyl)acetamide]
≤ 1 nM	≤ 1 nM	COCCNC(=O)c1ccc(Nc2nc3ccc(-c4ccc(NC(=O)Cc5ccc(F)cc5)cc4)cn3n2)c(OC)c1 [Example 12.01, 4-{[6-(4-{[(4-fluorophenyl)-acetyl]amino}phenyl)[1,2,4]triazolo[1,5-a]pyridin-2-yl]amino}-3-methoxy-N-(2-methoxyethyl)benzamide]
1.2 nM	≤ 1 nM	COc1cc(C(=O)NCCCF)ccc1Nc1nc2ccc(-c3ccc(NC(=O)Cc4ccc(F)cc4)cc3)cn2n1 [Example 12.11, 4-{[6-(4-{[(4-fluorophenyl)-acetyl]amino}phenyl)[1,2,4]triazolo[1,5-a]pyridin-2-yl]amino}-N-(3-fluoro-propyl)-3-methoxybenzamide]
≤ 1 nM	≤ 1 nM	CCOc1cc(C(=O)N(C)CC)ccc1Nc1nc2ccc(-c3ccc(NC(=O)Cc4ccc(F)cc4)cc3)cn2n1 [Example 12.19, 3-ethoxy-N-ethyl-4-{[6-(4-{[(4-fluorophenyl)acetyl]-amino}phenyl)[1,2,4]-triazolo[1,5-a]pyridin-2-yl]amino}-N-methyl-benzamide]
≤ 1 nM	≤ 1 nM	CN(C)CCNC(=O)c1ccc(Nc2nc3ccc(-c4ccc(NC(=O)Cc5ccc(F)cc5)cc4)cn3n2)c(OCC(F)(F)F)c1 [Example 12.23, N-[2-(dimethylamino)ethyl]-4-{[6-(4-{[(4-fluorophenyl)-acetyl]amino}phenyl)[1,2,4]triazolo[1,5-a]pyridin-2-yl]amino}-3-(2,2,2-trifluoro-ethoxy)benzamide]
≤ 1 nM	≤ 1 nM	O=C(NCCF)c1ccc(Nc2nc3ccc(-c4ccc(C(=O)NCc5ccc(F)cc5)cc4)cn3n2)c(OCC(F)(F)F)c1 [Example 12.59, 4-[(6-{4-[(4-fluorobenzyl)-carbamoyl]phenyl}[1,2,4]triazolo [1,5-a]pyridin-2-yl)-amino]-N-(2-fluoroethyl)-3-(2,2,2-trifluoroethoxy)-benzamide]
≤ 1 nM	≤ 1 nM	COc1cc(CO)ccc1Nc1nc2ccc(-c3ccc(NC(=O)Cc4ccc(F)cc4)cc3)cn2n1 [Example 12.84, 2-(4-fluorophenyl)-N-[4-(2-{[4-(hydroxymethyl)-2-methoxyphenyl]amino}-[1,2,4]triazolo[1,5-α]pyridin-6-yl)phenyl]acetamide]
≤ 1 nM	≤ 1 nM	COc1cc(C(C)(C)O)ccc1Nc1nc2ccc(-c3ccc(NC(=O)Cc4ccc(F)cc4)cc3)cn2n1 [Example 12.17, 2-(4-fluorophenyl)-N-[4-(2-{[4-(2-hydroxypropan-2-yl)-2-methoxyphenyl]amino}-[1,2,4]triazolo[1,5-a]pyridin-6-yl)phenyl]acetamide]
